From ChEMBL document CHEMBL3885861, “Open TG-GATES”

Species on record: Rattus norvegicus
Assay: Open TG-GATES - Regimen: Single
Assay type: toxicity, organism-based, Sprague-Dawley
Design: regimen Single, gender Male, age 6 weeks
Conditions: in vivo, po, 6 mg/kg, route gavage, dose level Middle; for APTT / Bas / Eos / Fbg / Hb / Lym / MCH / MCHC / MCV / Mono / Neu / PT / Plat / RBC / Ret / WBC: tissue Blood; for KIDNEY_L / KIDNEY_R / KIDNEY_TOTAL: tissue Kidney; for LIVER: tissue Liver; for ALP / ALT / AST / BUN / CRE / Ca / Cl / DBIL / GLC / IP / K / LDH / Na / PL / RALB / TBIL / TC / TG / TP / gamma-GTP: tissue Plasma

OCCN1CCN(CCCN2c3ccccc3Sc3ccc(C(F)(F)F)cc32)CC1 [FLUPHENAZINE]
TERMINAL_BW (3 h): 196.9 g | APTT (3 h): 16 s | Bas (3 h): 0% | Eos (3 h): 0.6% | Fbg (3 h): 213.6 mg/dL | Hb (3 h): 12.8 g/dL | Lym (3 h): 75% | MCH (3 h): 21.2 pg | MCHC (3 h): 32.9% | MCV (3 h): 64.2 fL | Mono (3 h): 9.2% | Neu (3 h): 15.2% | PT (3 h): 12.5 s | Plat (3 h): 98.9 x10_4/uL | RBC (3 h): 607.8 x10_4/ul | Ret (3 h): 7.7% | WBC (3 h): 78.7 x10_2/uL | KIDNEY_L (3 h): 0.9 g | KIDNEY_R (3 h): 0.9 g | KIDNEY_TOTAL (3 h): 1.8 g | LIVER (3 h): 9.1 g | ALP (3 h): 915 IU/L | ALT (3 h): 35.8 IU/L | AST (3 h): 63.2 IU/L | BUN (3 h): 10 mg/dL | CRE (3 h): 0.5 mg/dL | Ca (3 h): 10.3 mg/dL | Cl (3 h): 105.4 meq/L | DBIL (3 h): 0.008 mg/dL | GLC (3 h): 191 mg/dL | IP (3 h): 10.4 mg/dL | K (3 h): 4.4 meq/L | LDH (3 h): 91.6 IU/L | Na (3 h): 138.2 meq/L | PL (3 h): 136.6 mg/dL | RALB (3 h): 3.6 g/dL | TBIL (3 h): 0.4 mg/dL | TC (3 h): 77.2 mg/dL | TG (3 h): 48 mg/dL | TP (3 h): 5.3 g/dL | gamma-GTP (3 h): 1.8 IU/L | TERMINAL_BW (6 h): 195.2 g | APTT (6 h): 16.4 s | Bas (6 h): 0% | Eos (6 h): 0.8% | Fbg (6 h): 211.6 mg/dL | Hb (6 h): 13.2 g/dL | Lym (6 h): 74.4% | MCH (6 h): 21.3 pg | MCHC (6 h): 32.8% | MCV (6 h): 64.9 fL | Mono (6 h): 9.4% | Neu (6 h): 15.8% | PT (6 h): 12.3 s | Plat (6 h): 113.8 x10_4/uL | RBC (6 h): 620.4 x10_4/ul | Ret (6 h): 8.6% | WBC (6 h): 89.6 x10_2/uL | KIDNEY_L (6 h): 0.9 g | KIDNEY_R (6 h): 0.9 g | KIDNEY_TOTAL (6 h): 1.8 g | LIVER (6 h): 8.8 g | ALP (6 h): 722.4 IU/L | ALT (6 h): 30 IU/L | AST (6 h): 56.2 IU/L | BUN (6 h): 10.4 mg/dL | CRE (6 h): 0.5 mg/dL | Ca (6 h): 10.2 mg/dL | Cl (6 h): 105.6 meq/L | DBIL (6 h): 0.014 mg/dL | GLC (6 h): 196 mg/dL | IP (6 h): 10.2 mg/dL | K (6 h): 4.7 meq/L | LDH (6 h): 90.8 IU/L | Na (6 h): 136 meq/L | PL (6 h): 144.4 mg/dL | RALB (6 h): 3.6 g/dL | TBIL (6 h): 0.4 mg/dL | TC (6 h): 84.6 mg/dL | TG (6 h): 26.8 mg/dL | TP (6 h): 5.3 g/dL | gamma-GTP (6 h): 1.4 IU/L | TERMINAL_BW (9 h): 194 g | APTT (9 h): 16.5 s | Bas (9 h): 0% | Eos (9 h): 0.6% | Fbg (9 h): 227 mg/dL | Hb (9 h): 13.2 g/dL | Lym (9 h): 79.2% | MCH (9 h): 22.1 pg | MCHC (9 h): 33.3% | MCV (9 h): 66.3 fL | Mono (9 h): 5.8% | Neu (9 h): 14.8% | PT (9 h): 12.5 s | Plat (9 h): 112.2 x10_4/uL | RBC (9 h): 598.2 x10_4/ul | Ret (9 h): 7.8% | WBC (9 h): 74.5 x10_2/uL | KIDNEY_L (9 h): 0.9 g | KIDNEY_R (9 h): 1 g | KIDNEY_TOTAL (9 h): 1.9 g | LIVER (9 h): 7.9 g | ALP (9 h): 730.2 IU/L | ALT (9 h): 30.4 IU/L | AST (9 h): 54.2 IU/L | BUN (9 h): 9.2 mg/dL | CRE (9 h): 0.5 mg/dL | Ca (9 h): 10.1 mg/dL | Cl (9 h): 106.2 meq/L | DBIL (9 h): 0.038 mg/dL | GLC (9 h): 189 mg/dL | IP (9 h): 10.5 mg/dL | K (9 h): 4.2 meq/L | LDH (9 h): 83.8 IU/L | Na (9 h): 138.4 meq/L | PL (9 h): 133.2 mg/dL | RALB (9 h): 3.7 g/dL | TBIL (9 h): 0.4 mg/dL | TC (9 h): 80.6 mg/dL | TG (9 h): 21.4 mg/dL | TP (9 h): 5.5 g/dL | gamma-GTP (9 h): 1.8 IU/L | TERMINAL_BW (24 h): 201.5 g | APTT (24 h): 16.7 s | Bas (24 h): 0% | Eos (24 h): 1.2% | Fbg (24 h): 208 mg/dL | Hb (24 h): 13.7 g/dL | Lym (24 h): 81.4% | MCH (24 h): 21.6 pg | MCHC (24 h): 33.2% | MCV (24 h): 64.9 fL | Mono (24 h): 9% | Neu (24 h): 8.6% | PT (24 h): 11.9 s | Plat (24 h): 112.8 x10_4/uL | RBC (24 h): 636 x10_4/ul | Ret (24 h): 7.3% | WBC (24 h): 85.5 x10_2/uL | KIDNEY_L (24 h): 0.9 g | KIDNEY_R (24 h): 0.9 g | KIDNEY_TOTAL (24 h): 1.8 g | LIVER (24 h): 9.6 g | ALP (24 h): 748.4 IU/L | ALT (24 h): 28.2 IU/L | AST (24 h): 56.6 IU/L | BUN (24 h): 23.8 mg/dL | CRE (24 h): 0.5 mg/dL | Ca (24 h): 11 mg/dL | Cl (24 h): 103.6 meq/L | DBIL (24 h): 0.03 mg/dL | GLC (24 h): 176.8 mg/dL | IP (24 h): 8 mg/dL | K (24 h): 5 meq/L | LDH (24 h): 90 IU/L | Na (24 h): 137.2 meq/L | PL (24 h): 154.6 mg/dL | RALB (24 h): 4.2 g/dL | TBIL (24 h): 0.3 mg/dL | TC (24 h): 84.4 mg/dL | TG (24 h): 94.4 mg/dL | TP (24 h): 6.1 g/dL | gamma-GTP (24 h): 1.2 IU/L
